According to PMC4559881 (Molecular Neurodegeneration, 2015):
“And” between values parts separate entries of the source, which are not always exact repeats. Equal entries are not always repeated. Where two headings read alike, the source gives them in different places.

How the values were obtained:
[1] = Pharmacokinetics after i.v. and oral application, rat
Description: (§3) Pharmacokinetic studies used male Sprague Dawley rats, C57BL6 mice and Beagle dogs, obtained from Charles River (France, rodents) and Marshall (Italy, dogs). […] Blood was collected i.v., by sublingual bleeding or at sacrifice whereas a serial blood sampling allowed obtaining individual PK profiles in these species. Blood samples were taken between 5 min (intravenous) and 15 min (oral) up to 24 h (mice), 48 h (rat) and 408 h (dog).
(§4) The absorption and disposition parameters were estimated by a non-compartmental analysis of the mean blood concentration (n = 3 mice) or individual concentration (rats, dogs) versus time profile after oral and intravenous administration.

[2] = test system: wtAPP CHO cells; experiment: Release of APP metabolites from wild-type human APP751 CHO cells; settings: Cricetulus griseus, 24 h
[3] = Chronic treatment of mice: observations (mortality, hair colour, retina); type: in vivo; settings: APP51/16 mice, 100 μmol/kg p.o. once daily
[4] = test system: Aβ40; experiment: Rat PK/PD study: Aβ40 in forebrain and CSF after oral dosing; type: in vivo; settings: for ED50: po, at 4 h, read-out: ED50 for inhibition of forebrain Aβ40
Description: Maximum activity was between 4 and 8 h, and Aβ40 concentrations returned to baseline after 24 h. Significant (>50 %) Aβ40 lowering was observed even at the lowest dose of 3 μmol/kg, and the effect saturated at higher doses.
(§1) Frozen rodent forebrains were homogenized in 9 volumes of ice-cold Tris-buffered saline (pH 7.4) containing Complete protease inhibitor cocktail (Roche Diagnostics, Penzberg, Germany) using a Sonifier 450 (Branson) and stored in aliquots at -80 °C. Triton X-100 soluble Aβ was extracted by mixing 50 μl 2 % Triton X-100 with 50 μl homogenate, incubating for 15 min on ice with vortexing, followed by ultracentrifugation at 100000xg for 15 min. The clear supernatant was diluted to a final forebrain dilution of 1:100 and used for analysis. For the extraction of insoluble amyloid peptides, 50 μl forebrain homogenate was mixed with 117 μl of 100 % formic acid and stored on ice for 15 min with vortexing. Samples were neutralized with 950 μl 1 M Tris base, containing Complete protease inhibitor cocktail (Roche, Basle, Switzerland) and stored overnight at room temperature. The supernatant after 15 min centrifugation at 14000 rpm was used for analysis.
(§2) Aβ38, 40 and 42 were determined using the electro-chemiluminescence immuno assay kits from Meso Scale Discovery (Rockville, MD, USA) in either singlet or triplex format. Samples and standards were prepared according to the manufactures protocols. The kit based on the antibody 4G8 was used for rat forebrain and CSF samples, and kits based on 6E10 were used for dog CSF or plasma and APP51/16 brain and CSF samples. Soluble APPα and sAPPβ from APP51/16 mice were determined from the 100000xg supernatant and analyzed with Meso Scale Discovery commercial kits. C-terminal fragments C83 and C99 were determined from Western blots. Forebrain homogenates dephosphorylated with lambda protein phosphatase as described and run on a 10 % Tris-bicine gel with 8 M urea. After transfer to Immobilon P membranes (Bio-Rad Bedford MA USA), bands were probed with APP C8 antibody (recognizing the C-terminus of APP) and detected with goat anti-mouse IgG Fab fragment AlexaFluor680 (Invitrogen). The same gel was used to visualize Aβ1-38, 1-40, and 1-42 using the N-terminal antibody beta1 and goat anti rabbit IgG IRdye 800CW (Odyssey). Full-length human APP was detected using an in house immunoassay based on the MSD ECL system as described.

[5] = Blood pharmacokinetics and brain penetration in the rat, 30 μmol/kg oral; type: in vivo; settings: for Cmax / AUC(0-t): male, Sprague Dawley, 30 umol/kg
Source text: In vivo blood pharmacokinetics and brain penetration was investigated in the rat.

[6] = test system: Aβ40; experiment: Pre-plaque APP51/16 mice: brain Aβ40 after single or 4-day oral dosing; type: in vivo, mouse
Description: This strain of transgenic mice was selected since it resembles the situation in sporadic human AD, where no APP mutation is present. […] Next, we dosed the compound p.o. once daily for 4 days at 2 doses to pre-plaque APP51/16 mice (age: 8 months) in order to achieve steady state exposure, and measured the Aβ40 reduction 24 h after the last dose. […] In order to achieve a >50 % reduction of brain Aβ over a 24 h period in mice we selected this dose for a chronic study.
as §1
Aβ38, 40 and 42 were determined using the electro-chemiluminescence immuno assay kits from Meso Scale Discovery (Rockville, MD, USA) in either singlet or triplex format. Samples and standards were prepared according to the manufactures protocols. […] Soluble APPα and sAPPβ from APP51/16 mice were determined from the 100000xg supernatant and analyzed with Meso Scale Discovery commercial kits. C-terminal fragments C83 and C99 were determined from Western blots. […] After transfer to Immobilon P membranes (Bio-Rad Bedford MA USA), bands were probed with APP C8 antibody (recognizing the C-terminus of APP) and detected with goat anti-mouse IgG Fab fragment AlexaFluor680 (Invitrogen). […]

[7] = test system: APP51/16 transgenic mice; experiment: Chronic 6-week treatment of APP51/16 mice: APP metabolites, Aβ deposition and neuroinflammation; type: in vivo, mouse; settings: for CSF Aβ40 reduction / CSF Aβ42 reduction: 100 μmol/kg/d 6 weeks
Description: as §1, §2

[8] = Pharmacokinetics after i.v. and oral application, mouse
Description: as §3, §4

[9] = male, Sprague Dawley, blood, iv, 2 umol/kg
[10] = approximate area under the effect curve, 0, 4, 24 h after last dose

SMILES: Cc1cc(C#N)cnc1C(=O)Nc1ccc(F)c([C@]2(C)CO[C@@](C)(C(F)(F)F)C(N)=N2)c1 [NB-360]
- Vol. of Distribution ([1]; 2 μmol/kg i.v.): 10.2 L/kg
- clearance [1, 9]: 52 mL/min/kg
- half-life [1, 9]: 162 min
- bioavailability ([1]; male, Sprague Dawley, blood, po, 6 umol/kg): 92%
- IC50 ([2]; read-out: IC50 Aβ40 release): 3 nM
- IC50 ([2]; read-out: IC50 Aβ42 release): 3 nM
- IC50 ([2]; read-out: IC50 sAPPβ release): 4 nM
- first appearance of grey hair patches [3]: 2-3 weeks
- mortality during treatment ([3]; 6 weeks): Two out of 17 mice in the treatment group died
- Aβ40 inhibition ([4]; 30 μmol/kg p.o., 4 h): 90.9% and ~ 90%
- Max effect (dose-response in brain) ([4]; based on 4 h data, Fig. 2d): 91%
- Aβ40 lowering ([4]; lowest dose 3 μmol/kg p.o.): > 50%
- ED50 ([4]; converted dose): 0.7 mg/kg
- ED50 [4]: 1.6 ± 0.25 µmol/kg
- unbound AUC 0-24 h blood ([5]; blood, corrected for nonspecific binding): 0.63 µM·h
- unbound AUC 0-24 h brain ([5]; brain, corrected for nonspecific binding): 0.54 µM·h
- Cmax ([5]; blood): 1620 nM
- AUC(0-t) ([5]; blood, read-out: AUC 0-24 h blood): 10.2 µM·h
- Cmax ([5]; brain): 4010 nM
- AUC(0-t) ([5]; brain, read-out: AUC 0-24 h brain): 23.6 µM·h
- lowering of TX-100 soluble brain Aβ40 ([6]; pre-plaque APP51/16 mice (3-5 months), 30 μmol/kg single oral dose, 4 h): 79.6%
- reduction of forebrain Aβ ([6]; pre-plaque APP51/16 mice (8 months), 30 μmol/kg/d p.o. 4 days, 24 h after last dose): 15.1%
- Aβ40 reduction in forebrain ([6]; pre-plaque APP51/16 mice (8 months), 100 μmol/kg/d p.o. 4 days, 24 h after last dose): 52.1%
- CSF Aβ40 reduction ([7]; 4 h after the dose): > 90%
- CSF Aβ42 reduction ([7]; 4 h after the dose): > 90%
- CSF Aβ40 reduction ([7]; 24 h): about 60%
- CSF Aβ42 reduction ([7]; 24 h): about 60%
- C99 reduction in Triton TX-100 forebrain extract ([7]; 4 h after the last dose): about 80%
- sAPPβ reduction in Triton TX-100 forebrain extract ([7]; 4 h after the last dose): about 80%
- C99 reduction in Triton TX-100 forebrain extract ([7]; 24 h after the last dose): 57%
- sAPPβ reduction in Triton TX-100 forebrain extract ([7]; 24 h after the last dose): 70%
- Formic-acid extracted Aβ 1-38 in forebrain homogenate ([7]; NB-360 group, Mean ± SEM, N 14): 77.0 ± 24.9 pmol/g forebrain
- Formic-acid extracted Aβ 1-40 in forebrain homogenate ([7]; NB-360 group, Mean ± SEM, N 14): 197.3 ± 43.4 pmol/g forebrain
- Formic-acid extracted Aβ 1-42 in forebrain homogenate ([7]; NB-360 group, Mean ± SEM, N 14): 106.6 ± 20.9 pmol/g forebrain
- Plasma Aβ40 reduction, AUEC24h ([7]; approximate area under the effect curve after last dose): 70%
- CSF Aβ40 reduction, AUEC24h [7, 10]: approximately 75%
- CSF Aβ42 reduction, AUEC24h [7, 10]: approximately 75%
- CSF sAPPβ reduction, AUEC24h [7, 10]: approximately 75%
- C83 average increase above vehicle control ([7]; forebrain extract, 4 and 24 h): 50%
- sAPPα average increase above vehicle control ([7]; forebrain extract, 4 and 24 h): 50%
- Aβ 1-38, NB-360 group, change vs baseline ([7]; formic-acid extract): -33.5 % p = 0.39
- Aβ 1-38, NB-360 group, change vs vehicle ([7]; formic-acid extract): -68.0 % p = 0.015
- Aβ 1-40, NB-360 group, change vs baseline ([7]; formic-acid extract): -16.1 % p = 0.52
- Aβ 1-40, NB-360 group, change vs vehicle ([7]; formic-acid extract): -64.5 % p = 0.003
- Aβ 1-42, NB-360 group, change vs vehicle ([7]; formic-acid extract): -69.3 % p = 0.0006
- number of Aβ deposits (large plaques, small plaques, granules) per 3 cortical sections ([7]; irrespective of the deposit size): indistinguishable from baseline
- total area of cortical region of interest stained positively for NT12 ([7]; mean ± SEM, p = 0.093 vs baseline, p <0.0001 vs vehicle): 0.209 ± 0.054%
- number of Iba-1 positive cell clusters in the cortex ([7]; relative to vehicle-treated mice): substantially lower
- clearance ([8]; C57BL6, mouse, blood, iv, 2 umol/kg): 16 mL/min/kg
- bioavailability ([8]; C57BL6, mouse, blood, po, 6 umol/kg): 37%
- Terminal half-life after i.v. application ([8]; mouse, 2 μmol/kg i.v.): 3.6 h
- Vol. of Distribution ([8]; mouse, 2 μmol/kg i.v.): 4.6 L/kg
